The numbers were not newly measured in patent US20210000842A1, “TETRACYCLINE MANAGEMENT OF EGFR INHIBITOR ASSOCIATED DERMATOSES” (Foamix Pharmaceuticals Ltd., priority 2015, published 2021), which cites them from elsewhere.

For data set [1], the system named is EGFR inhibitor-induced rash. The note with it: cited from earlier work.
The test system of data set [2] is mouse. Particulars: cited from earlier work.
For data set [3] the following is noted: cited from earlier work.
Data set [4] relates to patients treated with EGFR inhibitors. Particulars: patients treated with the EGFR inhibitor (Erlotinib 150 mg QD); cited from earlier work.

For the molecule `CCOC(=O)c1ccc(C#Cc2ccc3c(c2)C(C)(C)CCS3)nc1` [tazarotene, Ethyl 6-[2-(4,4-dimethylthiochroman-6-yl)ethynyl] nicotinate], in data set [1] (cream twice a day), the “Clinical benefit on EGFR inhibitor-induced rash” value was “no observed clinical benefit” and the “Patients in whom the rash was assessed as more severe” value was 10%. As for `C[C@H]1c2cccc(O)c2C(=O)C2=C(O)[C@]3(O)C(=O)C(C(N)=O)=C(O)[C@@H](N(C)C)[C@@H]3[C@@H](O)[C@@H]21` [Doxycycline, doxycycline], the “Oral acute toxicity LD50” value in data set [2] is listed as 1007 mg/kg.

As to `CC[C@@H]1/C=C(\C)C[C@H](C)C[C@H](OC)[C@H]2O[C@@](O)(C(=O)C(=O)N3CCCC[C@H]3C(=O)O[C@H](/C(C)=C/[C@@H]3CC[C@H](Cl)[C@H](OC)C3)[C@H](C)[C@@H](O)CC1=O)[C@H](C)C[C@@H]2OC` [pimecrolimus], the “Lesion counts on treated side of the face” value in data set [1] (half face study, cetuximab, after 2 weeks) was “significantly less”. Regarding Doxycycline hyclate, in data set [3], the Lipid solubility entry is “high degree” and the Solubility in water result is on record as “soluble”.

For the molecule `C#Cc1cccc(Nc2ncnc3cc(OCCOC)c(OCCOC)cc23)c1` [Erlotinib], in data set [4], the “Patients who developed a grade 3 rash” value is listed as 9% and the “Patients who developed a rash in all grades” value is 75%.
